Assay results: patent US6642222B2, “Pyrano, piperidino, and thiopyrano compounds and methods of use” (Abbott Laboratories, priority 1998, dated 2003)

Legend:
[1] = test system: Guinea-Pig Bladder (GPB) Cells; assay: Membrane Hyperpolarization (MHP) assay, DiBAC(4)3 / FLIPR; settings: Cavia porcellus; for EC50: membrane hyperpolarization, GPB cells; for Emax: read-out: Maximal Response (% P1075), maximal steady-state hyperpolarization, normalized to 10 μM P1075 (100%)

melting point [°C] | EC50 [1] [nM] | Compound | Emax [1] [%]
248 to 250 | 27000 | CN1CC(=O)C2=C(C1)NC1=C(C(=O)CCC1)C2c1ccc(F)c(Br)c1.Cl (stereo not drawn) [Example 3, 5-(3-bromo-4-fluorophenyl)-2-methyl-2,3,5,8,9,10-hexahydrobenzo[b][1,7]naphthyridine-4,6(1H, 7H)-dione Hydrochloride] | 41
> 260 |  | CC1(C)OC(=O)C2=C1NC1=C(C(=O)COC1)C2c1ccc(F)c(Br)c1 (stereo not drawn) [Example 99, 9-(3-bromo-4-fluorophenyl)-3,3-dimethyl-5,9-dihydro-3H-furo[3,4-b]pyrano[4,3-e]pyridine-1,8(4H,7H)-dione] | 
206 to 208 |  | CCCC1OC(=O)C2=C1NC1=C(C(=O)COC1)C2c1ccc(F)c(Br)c1 (single isomer, unassigned) [Example 97, 9-(3-bromo-4-fluorophenyl)-3-propyl-5,9-dihydro-3H-furo[3,4-b]pyrano[4,3-e]pyridine-1,8(4H,7H)-dione] | 
260 to 263 |  | C[C@@H]1OCC(=O)C2=C1NC1=C(C(=O)OC1)[C@H]2c1ccc(F)c(Br)c1 (relative stereo) [Example 89, (cis)-9-(3-bromo-4-fluorophenyl)-5-methyl-5,9-dihydro-3H-furo[3,4-b]pyrano[4,3-e]pyridine-1,8(4H,7H)-dione] | 
234 to 239 |  | C[C@H]1OCC2=C(C1=O)[C@H](c1ccc(F)c(Br)c1)C1=C(COC1=O)N2 (relative stereo) [Example 85, (cis)-9-(3-bromo-4-fluorophenyl)-7-methyl-5,9-dihydro-3H-furo[3,4-b]pyrano[4,3-e]pyridine-1,8(4H,7H)-dione] | 
213 to 216 |  | C[C@@H]1OC(=O)C2=C1NC1=C(C(=O)COC1)[C@H]2c1ccc(F)c(Br)c1 (relative stereo) [Example 91, (cis)-9-(3-bromo-4-fluorophenyl)-3-methyl-5,9-dihydro-3H-furo[3,4-b]pyrano[4,3-e]pyridine-1,8(4H,7H)-dione] | 
> 260 | 970 | O=C1COCC2=C1C(c1ccc(F)c(Br)c1)C1=C(CNC1=O)N2 (stereo not drawn) [Example 27, 9-(3-bromo-4-fluorophenyl)-2,3,5,9-tetrahydropyrano[3,4-b]pyrrolo[3,4-e]pyridine-1,8(4H,7H)-dione] | 87
> 260 | 71 | CC1(C)CCC2=C(C1=O)C(c1ccc(F)c(Br)c1)C1=C(COCC1=O)N2 (stereo not drawn) [Example 41, 5-(3-bromo-4-fluorophenyl)-7,7-dimethyl-5,8,9,10-tetrahydro-1H-pyrano[3,4-b]quinoline-4,6(3H,7H)-dione] | 66
219 to 220 |  | CCCC1OC(=O)C2=C1NC1=C(C(=O)COC1)C2c1ccc(F)c(Br)c1 (single isomer, unassigned) [Example 98, 9-(3-bromo-4-fluorophenyl)-3-propyl-5,9-dihydro-3H-furo[3,4-b]pyrano[4,3-e]pyridine-1,8(4H,7H)-dione] | 
230 to 233 |  | C[C@@H]1OC(=O)C2=C1NC1=C(C(=O)COC1)[C@H]2c1ccc(F)c(Br)c1 (relative stereo) [Example 100, (cis)-9-(3-bromo-4-fluorophenyl)-3-methyl-5,9-dihydro-3H-furo[3,4-b]pyrano[4,3-e]pyridine-1,8(4H,7H)-dione] | 
161 to 162 |  | CCC1OC(=O)C2=C1NC1=C(C(=O)COC1)C2c1ccc(F)c(Br)c1 (single isomer, unassigned) [Example 95, 9-(3-bromo-4-fluorophenyl)-3-ethyl-5,9-dihydro-3H-furo[3,4-b]pyrano[4,3-e]pyridine-1,8(4H,7H)-dione] | 
246 to 248 |  | CCC1OC(=O)C2=C1NC1=C(C(=O)COC1)C2c1ccc(F)c(Br)c1 (single isomer, unassigned) [Example 96, 9-(3-bromo-4-fluorophenyl)-3-ethyl-5,9-dihydro-3H-furo[3,4-b]pyrano[4,3-e]pyridine-1,8(4H,7H)-dione] | 
